From ChEMBL document CHEMBL1201862, “PubChem BioAssay data set” (2004)
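Values below derive from 48-hour exposures of cells grown in 96-well plates, with endpoints linearly interpolated between the two concentrations bracketing the appropriate inhibition level. At the GI50, growth is halved.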 Calls of active or inactive are those of the source. Rule as the data show it: active = GI50 up to about 1.1 µM and inactive = higher.

Assays:
Assay in all cases: growth of human tumour cells (NCI), 48 h
[1] = system: HOP-62
[2] = system: MDA-MB-435
[3] = system: A549
[4] = system: OVCAR-5
[5] = system: RPMI-8226
[6] = system: IGROV-1
[7] = system: Hs-578T
[8] = system: NCI-H460
[9] = system: 786-0
[10] = system: OVCAR-3
[11] = system: LOX IMVI
[12] = system: SNB-19
[13] = system: SK-OV-3
[14] = system: MDA-MB-231
[15] = system: HCT-15
[16] = system: SK-MEL-2
[17] = system: OVCAR-4
[18] = system: NCI/ADR-RES
[19] = system: HCC 2998
[20] = system: SF-539

SMILES | GI50 [1] | GI50 [2] | GI50 [3] | GI50 [4] | GI50 [5] | GI50 [6] | GI50 [7] | GI50 [8] | GI50 [9] | GI50 [10] | GI50 [11] | GI50 [12] | GI50 [13] | GI50 [14] | GI50 [15] | GI50 [16] | GI50 [17] | GI50 [18] | GI50 [19] | GI50 [20]
CC(Br)CN(CC(C)Br)c1ccc2c(c1)Cc1ccccc1-2 (configuration not stated) | 11.7 µM (inactive) | 13.7 µM (inactive) | 12.1 µM (inactive) | 18.9 µM (inactive) | 3.27 µM (inactive) | 6.93 µM (inactive) | 13.4 µM (inactive) | 2.22 µM (inactive) | 11.1 µM (inactive) | 11.7 µM (inactive) | 8.11 µM (inactive) | 13.6 µM (inactive) | 16 µM (inactive) | 13.9 µM (inactive) | 13.1 µM | 15.7 µM (inactive) | 13.1 µM (inactive) | 13.5 µM (inactive) |  | 
O=[N+]([O-])C(C(Cl)=C(Cl)Cl)=C(N1CCCCC1)N1CCCCC1 | > 100 µM (inactive) |  | > 100 µM (inactive) | > 100 µM (inactive) | 84.1 µM (inactive) | 69.5 µM (inactive) | 13.8 µM (inactive) | > 100 µM (inactive) | > 100 µM (inactive) | 62.2 µM (inactive) | 55 µM (inactive) | 1.95 µM (inactive) | > 100 µM (inactive) | > 100 µM (inactive) | > 100 µM |  | > 100 µM (inactive) | > 100 µM (inactive) | > 100 µM (inactive) | > 100 µM (inactive)
NC1CC(=O)c2cc(Cl)sc21 (configuration not stated) | > 100 µM (inactive) | > 100 µM (inactive) | > 100 µM (inactive) | > 100 µM (inactive) |  | > 100 µM (inactive) | > 100 µM (inactive) | > 100 µM (inactive) | > 100 µM (inactive) | > 100 µM (inactive) | > 100 µM (inactive) | > 100 µM (inactive) | > 100 µM (inactive) | > 100 µM (inactive) | > 100 µM | > 100 µM (inactive) | > 100 µM (inactive) | > 100 µM (inactive) |  | > 100 µM (inactive)
CN(C)CCNc1ccc([N+](=O)[O-])c2nc3ccccc3c(N)c12 | 2.26 µM (inactive) | 0.615 µM (active) | 0.439 µM (active) | > 10 µM (inactive) | 0.31 µM (active) | 0.456 µM (active) | 3.96 µM (inactive) | 0.318 µM (active) | 0.535 µM (active) | 0.532 µM (active) | 0.375 µM (active) | 0.895 µM (active) | 0.152 µM (active) | 0.695 µM (active) | 0.444 µM | 1.99 µM (inactive) | 0.74 µM (active) | 0.569 µM (active) |  | 0.536 µM (active)
Nc1nc2[nH]cc(CCc3ccc(C(=O)N[C@@H](CCC(=O)O)C(=O)O)cc3)c2c(=O)[nH]1 [PEMETREXED] | > 100 µM (inactive) | > 100 µM (inactive) | 1.4 µM (inactive) | > 100 µM (inactive) |  | > 100 µM (inactive) | > 100 µM (inactive) | 0.0359 µM (active) | < 0.0104 µM (active) | > 100 µM (inactive) | 0.0743 µM (active) | > 100 µM (inactive) | > 100 µM (inactive) | 10.3 µM (inactive) | > 100 µM | > 100 µM (inactive) | > 100 µM (inactive) |  | < 0.01 µM (active) | < 0.01 µM (active)
CC(=O)O[C@@]12CO[C@@H]1C[C@H](O)[C@@]1(C)C(=O)[C@H](O)C3=C(C)[C@@H](OC(=O)[C@H](O)[C@@H](NC(=O)OC(C)(C)C)c4ccccc4)C[C@@](O)([C@@H](OC(=O)c4ccccc4)[C@H]21)C3(C)C [DOCETAXEL] | < 0.01 µM (active) | 0.000149 µM (active) | < 0.01 µM (active) | < 0.01 µM (active) | < 0.01 µM (active) | < 0.01 µM (active) | 0.00104 µM (active) | 0.00291 µM (active) | < 0.01 µM (active) | < 0.01 µM (active) | < 0.0585 µM (active) | 43.2 µM (inactive) | 0.0132 µM (active) | 0.0216 µM (active) | 0.0493 µM |  | 21.8 µM (inactive) |  | < 0.01 µM (active) | < 0.01 µM (active)
CCC(=O)O[C@H]1CC[C@H]2[C@@H]3CCC4=CC(=O)C=C[C@]4(O)[C@H]3CC[C@]12C | 29.4 µM (inactive) | 3.11 µM (inactive) | 16.1 µM (inactive) | 87.5 µM (inactive) | 8.55 µM (inactive) | 22.4 µM (inactive) | 39.5 µM (inactive) | 16.3 µM (inactive) | 33.7 µM (inactive) | 19.8 µM (inactive) | 16.7 µM (inactive) | 28.4 µM (inactive) | 82.6 µM (inactive) | 22.7 µM (inactive) | 15 µM | 15.9 µM (inactive) | 28.3 µM (inactive) | 37 µM (inactive) |  | 29.6 µM (inactive)
O=C(O)CN1C(=O)C(Cc2ccc(O)cc2)N=C(c2cccc(O)c2)c2ccccc21 (configuration not stated) | > 100 µM (inactive) | > 100 µM (inactive) | > 100 µM (inactive) | > 100 µM (inactive) | > 100 µM (inactive) | > 100 µM (inactive) | > 100 µM (inactive) | > 100 µM (inactive) | > 100 µM (inactive) | > 100 µM (inactive) | > 100 µM (inactive) | > 100 µM (inactive) | > 100 µM (inactive) | > 100 µM (inactive) | > 100 µM | > 100 µM (inactive) | > 100 µM (inactive) |  |  | > 100 µM (inactive)
Cc1ccc2c(c1)C(O)(c1ccccc1)CCS2 (configuration not stated) | 33.7 µM (inactive) | 27.7 µM (inactive) | 32.8 µM (inactive) | 27.6 µM (inactive) |  | 20.6 µM (inactive) | 34.1 µM (inactive) | 34.8 µM (inactive) | 32.5 µM (inactive) | 21.3 µM (inactive) | 19.9 µM (inactive) | 59.6 µM (inactive) | > 100 µM (inactive) | 18 µM (inactive) | 19.5 µM | 25.2 µM (inactive) | 43.4 µM (inactive) | 34 µM (inactive) |  | 20.2 µM (inactive)
COc1cc2cc[n+](C)c(Cc3ccc(Oc4cc(Cc5c6cc(OC)c(OC)cc6cc[n+]5C)ccc4OC)cc3)c2cc1OC | > 100 µM (inactive) | > 100 µM (inactive) | > 100 µM (inactive) | > 100 µM (inactive) | > 100 µM (inactive) | > 100 µM (inactive) | > 100 µM (inactive) | > 100 µM (inactive) | > 100 µM (inactive) | > 100 µM (inactive) | 79.8 µM (inactive) | > 100 µM (inactive) | > 100 µM (inactive) | > 100 µM (inactive) | > 100 µM | > 100 µM (inactive) | > 100 µM (inactive) |  | > 100 µM (inactive) | > 100 µM (inactive)
Nc1nc(N)c(C2=CCN(Cc3ccccc3)CC2)c(=O)[nH]1 | > 100 µM (inactive) | > 100 µM (inactive) | > 100 µM (inactive) | > 100 µM (inactive) | > 100 µM (inactive) | > 100 µM (inactive) | > 100 µM (inactive) | > 100 µM (inactive) | > 100 µM (inactive) | > 100 µM (inactive) |  | > 100 µM (inactive) | > 100 µM (inactive) | > 100 µM (inactive) | > 100 µM | > 100 µM (inactive) | > 100 µM (inactive) | > 100 µM (inactive) |  | > 100 µM (inactive)
O=C(N/C(=C/c1ccc(Cl)cc1Cl)c1nc2ccccc2s1)c1ccccc1 | 10.8 µM (inactive) | 15.6 µM (inactive) | 18.1 µM (inactive) | 17.3 µM (inactive) | 12.1 µM (inactive) | 11.1 µM (inactive) | 12.1 µM (inactive) | 17.8 µM (inactive) | 12.9 µM (inactive) | 7.78 µM (inactive) | 5.32 µM (inactive) | 19.5 µM (inactive) | 24.3 µM (inactive) | 10.3 µM (inactive) | 4.37 µM | 17.7 µM (inactive) | 15.5 µM (inactive) | 15.6 µM (inactive) |  | 15.5 µM (inactive)
NCCc1ccc(S(=O)(=O)O)cc1[N+](=O)[O-] | > 100 µM (inactive) | > 100 µM (inactive) | > 100 µM (inactive) | > 100 µM (inactive) | > 100 µM (inactive) | > 100 µM (inactive) | > 100 µM (inactive) | > 100 µM (inactive) | > 100 µM (inactive) | > 100 µM (inactive) | > 100 µM (inactive) | > 100 µM (inactive) | > 100 µM (inactive) | > 100 µM (inactive) | > 100 µM | > 100 µM (inactive) | > 100 µM (inactive) | > 100 µM (inactive) |  | > 100 µM (inactive)
O=C(Nc1nnc(-c2ccccc2)o1)C(SC(=S)N1CCCC1)c1ccccc1 (configuration not stated) | 24.8 µM (inactive) | 29.7 µM (inactive) | 26.4 µM (inactive) | 36.4 µM (inactive) | 24.3 µM (inactive) | 22.9 µM (inactive) | 87.9 µM (inactive) | 16.4 µM (inactive) | 26.4 µM (inactive) | 23.5 µM (inactive) | 14.1 µM (inactive) | 38.5 µM (inactive) | 36.8 µM (inactive) | 39 µM (inactive) | 6.9 µM | 25.5 µM (inactive) | 38.7 µM (inactive) | 6.67 µM (inactive) |  | 34.2 µM (inactive)
O=C1C=CC2(O[C@H](c3ccccc3)[C@@H](c3ccccc3)O2)C(SC(=O)c2ccccc2)C1 (some centres not stated) | 1.38 µM (inactive) | 2.02 µM (inactive) | 4.49 µM (inactive) | 1.69 µM (inactive) | 0.979 µM (active) | 1.52 µM (inactive) | 1.62 µM (inactive) | 3.02 µM (inactive) | 0.385 µM (active) | 1.79 µM (inactive) | 1.12 µM (inactive) | 2.19 µM (inactive) | 2.32 µM (inactive) | 3.9 µM (inactive) | 0.673 µM | 1.72 µM (inactive) | 1.63 µM (inactive) | 1.57 µM (inactive) |  | 1.75 µM (inactive)
